Results reported in patent US8455004B2, “Primary composition comprising a lipophilic bioactive compound” (Nestec S.A., priority 2000, dated 2013).

Experiment: Aqueous-phase analysis of the stability of lycopene (decomposition by light and oxygen)
Type: physicochemical
Procedure: It is known that light and oxygen cause lycopene to decompose. An aqueous-phase analysis of the stability of lycopene alone and of lycopene in combination with the whey protein according to the invention was carried out. After one day in the aqueous phase for lycopene alone, only 40% of the lycopene remains, whereas, with the whey, virtually 90% of it, remains.

For CC(C)=CCC/C(C)=C/C=C/C(C)=C/C=C/C(C)=C/C=C/C=C(C)/C=C/C=C(C)/C=C/C=C(\C)CCC=C(C)C [lycopene alone, lycopene], the “Lycopene remaining after one day” value (one day) was 40% and the “Lycopene remaining after two days” value (two days) was “virtually completely decomposed”.
